Results as given in patent US20230366875A1, “GPCR19-P2XN RECEPTOR COMPLEX AND USE THEREOF” (SEOUL NATIONAL UNIVERSITY R&DB FOUNDATION, priority 2020, published 2023).

Columns and labels:
IL-1β [1] = assay: IL-1β ELISA of HaCaT culture supernatant; type: cell-based, human; conditions: HaCaT cells
Protocol: Thereafter, the IL-1β concentration was measured according to the manufacturer's procedure using the IL-113 ELISA kit (R&D Systems Minneapolis, MN, USA) (FIG. 3B).

P2X7 receptor [2] = assay: Ca++ mobilization by P2X7 receptor in keratinocytes; type: cell-based, human; conditions: HaCaT cells, IL-1β (10 ng/ml)+TNF-α (10 ng/ml), HY209 200, 400 and 800 ng/ml, 20 μM BzATP or ATP
NLRP3 inflammasome [3] = assay: Inflammasomal components in HaCaT cells (immunostaining); type: cell-based, human; conditions: TNF-α (20 ng/ml)+HY209 (400 ng/ml) 3 hours, then DNCB (5 μg/ml) 24 hours
Protocol: (§1) After that, in order to stain inflammasomal components, the cells were stained with anti-NLRP3 conjugated antibody (Abeam, Cambridge, UK) and anti-ASC Ab (Clone B-3, Santa Cruz Biotechnology, Inc. Dallas, Texas, USA) at 4° C. overnight, and then with Alexa Fluor 488-labeled or Alexa Fluor 532-labeled secondary conjugated antibody (Invitrogen, Carlsbad, CA, USA).

IL-1β [4] = assay: IL-1β ELISA of BMDM culture supernatant; type: cell-based, mouse; conditions: BMDM cells
Protocol: The cells were treated with ATP (500 μm) or BzATP (300 μm) for an additional 1 hour before recovery of the culture supernatant of the sample. IL-1β concentration in the culture supernatant recovered was measured according to the manufacturer's procedure using the IL-1β ELISA kit (R & D Systems Minneapolis, MN, USA) (FIG. 4A).
IL-1β concentration in the culture supernatant recovered was measured according to the manufacturer's procedure using the IL-1β ELISA kit (R & D Systems Minneapolis, MN, USA) (FIG. 4B).

NLRP3 inflammasome [5] = assay: Inflammasomal components in BMDM cells (immunostaining); type: cell-based, mouse; conditions: LPS (10 ng/ml)+HY209 (400 ng/ml) 1 hour, BzATP (300 μm) 1 hour
Protocol: as §1

P2X7 = P2X7 (Homo sapiens, UniProt Q99572); assay: Potassium ion channel assay in PMA-differentiated U937 cells; conditions: U937 cells differentiated by PMA (25 nM), BzATP (600 μM), HY209 (1 μM) 1 hour before BzATP
Protocol: Specifically, U937 cells were used to investigate whether the activity of ion channel was changed by the regulation of GPCR19. U937 cells were differentiated by treatment with PMA (25 nM). After that, a fluorescent probe was added and the reaction was conducted for 1 hour. Thereafter, the cells were treated with BzATP (600 μM), and the cumulative fluorescence value was measured using an ELISA instrument to investigate whether the ion channel was activated.

P2X7 receptor [6] = target: T1, P2X7 receptor (Mus musculus, UniProt Q9Z1M0); assay: Ca++ mobilization by P2X7 receptor in macrophages; type: cell-based; conditions: BMDM cells, LPS (100 ng/ml)+HY209 (400 ng/ml) 1 hour, ATP (20 μM) or BzATP (40 μM)
T1 construct: endogenous in cells; host or cells: primary BMDM (bone marrow-derived macrophages)
Protocol: Specifically, BMDMs were obtained from three normal (wild-type, WT), GPCR19 KO or P2X7 KO mice. Then, the obtained BMDMs were treated with 20 μM ATP, attached to a glass coverslip, and then incubated in a physiological external solution consisting of NaCl 138 mM, KCl 5.6 mM, MgCl2 2 mM, HEPES 10 mM and pH 7.4 glucose 10 mM with 2 μM Fluo-4/AM in a 37° C. incubator for 30 minutes to observe intracellular Ca^++ mobilization. After that, the BMDMs were transferred to an open perfusion chamber to remove residual Fluo-4/AM, and the fluorescence level was measured using a fluorescence microscope (Nikon, Tokyo, Japan) under the conditions of excitation 494 nm and emission 506 nm. […]
After the treatment, Ca^++ mobilization measurement was started, and the cells were treated with ATP (20 μM) or BzATP (40 μM) in the presence of 2 mM CaCl2) and 0.5 mM MgCl2 50 seconds after the start of measurement. Intracellular Ca^++ mobilization was measured with […] using a fluorescence microscope in the same manner as in Example <2-1>, and graphed (FIG. 2D, left panels in first and second rows). After three independent experiments, the sum of the measured data was presented (FIG. 2D, right panels in first and second rows).

P2X7 receptor [7] = assay: Ca++ mobilization by P2X7 receptor in microglia; type: cell-based, mouse; conditions: BV2 cells, Aβ (2 μM)+HY209 (400 ng/ml) 1 hour, ATP (20 μM) or BzATP (40 μM)
[8] = test system: TNF-α, RANTES, MCP-1, IL-1β and IL-8; assay: Cytokine measurement using cytometric bead array (CBA); type: cell-based; conditions: 1 μM; compared with INT777, crisaborole, MCC950, A740003, GW791343, tofacitinib, prednisolone
Protocol: Specifically, cocktail beads were prepared by mixing fluorescent beads bound with antibodies to five types of inflammatory cytokines, TNF-α, RANTES, MCP-1, IL-1β and IL-8 to be confirmed. Next, 50 μl of the prepared cocktail beads, the prepared sample, and the standard sample were reacted at room temperature for 1 hour in a dark environment. […] As a positive control group, 1 μM of prednisolone, a corticosteroid was used. The reaction mixture was transferred to a new tube by the required amount so that the phycoerythrin (PE) detection reagent was 1 μl/sample, and washed with the washing buffer, the capture bead diluent was added so as to be contained by 50 μl per each sample through the calculation of volume, and the reaction was conducted at room temperature for 15 minutes in a dark environment. Next, 50 μl of the prepared PE detection reagent was added into the tube in which the cocktail beads, the prepared sample, and the standard sample were reacting, mixing was thoroughly performed, and then the reaction was further conducted for 2 hours. After all reactions were completed, 1 ml of washing buffer was added, centrifugation was performed at 200 g for 5 minutes, then the supernatant was removed, 300 μl of washing buffer was added, and then quantitative measurement of the 5 types of inflammatory cytokines was performed using a flow cytometer (CANTO II FACS, BD Biosciences, US).

Sequence of P2X7 (Q8TDU6 whole entry partner): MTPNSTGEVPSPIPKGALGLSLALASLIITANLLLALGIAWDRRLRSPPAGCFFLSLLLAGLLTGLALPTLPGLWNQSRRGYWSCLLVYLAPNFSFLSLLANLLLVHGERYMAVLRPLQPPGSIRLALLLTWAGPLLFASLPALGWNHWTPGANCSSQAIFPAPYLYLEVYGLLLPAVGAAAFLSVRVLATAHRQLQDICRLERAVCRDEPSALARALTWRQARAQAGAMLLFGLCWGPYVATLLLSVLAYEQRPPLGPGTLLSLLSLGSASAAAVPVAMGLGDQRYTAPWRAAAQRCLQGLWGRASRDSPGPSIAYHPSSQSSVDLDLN
Sequence of P2X7 (Q99572 whole entry): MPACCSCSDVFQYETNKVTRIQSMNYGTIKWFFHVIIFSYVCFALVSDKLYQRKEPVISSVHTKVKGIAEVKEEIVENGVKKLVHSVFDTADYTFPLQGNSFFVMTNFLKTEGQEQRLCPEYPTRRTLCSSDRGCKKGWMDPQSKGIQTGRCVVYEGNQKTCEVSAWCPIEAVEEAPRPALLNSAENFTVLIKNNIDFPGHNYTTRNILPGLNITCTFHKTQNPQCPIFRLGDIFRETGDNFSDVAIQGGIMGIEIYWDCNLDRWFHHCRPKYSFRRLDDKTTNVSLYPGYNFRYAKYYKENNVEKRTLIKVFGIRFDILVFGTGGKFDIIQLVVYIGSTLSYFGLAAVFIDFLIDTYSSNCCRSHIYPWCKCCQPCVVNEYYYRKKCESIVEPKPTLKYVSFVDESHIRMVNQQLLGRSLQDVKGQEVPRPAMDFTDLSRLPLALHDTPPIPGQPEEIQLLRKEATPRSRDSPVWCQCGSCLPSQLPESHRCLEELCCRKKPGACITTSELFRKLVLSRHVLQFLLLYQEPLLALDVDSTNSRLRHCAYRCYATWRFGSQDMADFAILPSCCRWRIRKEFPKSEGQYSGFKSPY
T1 sequence (Q80SS6 whole entry partner): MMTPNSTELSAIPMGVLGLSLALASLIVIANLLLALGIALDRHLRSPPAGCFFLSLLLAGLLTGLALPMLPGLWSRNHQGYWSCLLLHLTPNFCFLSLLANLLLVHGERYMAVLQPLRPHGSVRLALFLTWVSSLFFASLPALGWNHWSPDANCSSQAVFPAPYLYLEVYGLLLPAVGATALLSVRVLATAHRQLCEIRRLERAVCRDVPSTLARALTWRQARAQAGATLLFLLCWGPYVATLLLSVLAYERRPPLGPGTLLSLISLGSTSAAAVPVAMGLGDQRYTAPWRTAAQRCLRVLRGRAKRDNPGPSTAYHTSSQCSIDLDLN
T1 sequence (Q9Z1M0 whole entry): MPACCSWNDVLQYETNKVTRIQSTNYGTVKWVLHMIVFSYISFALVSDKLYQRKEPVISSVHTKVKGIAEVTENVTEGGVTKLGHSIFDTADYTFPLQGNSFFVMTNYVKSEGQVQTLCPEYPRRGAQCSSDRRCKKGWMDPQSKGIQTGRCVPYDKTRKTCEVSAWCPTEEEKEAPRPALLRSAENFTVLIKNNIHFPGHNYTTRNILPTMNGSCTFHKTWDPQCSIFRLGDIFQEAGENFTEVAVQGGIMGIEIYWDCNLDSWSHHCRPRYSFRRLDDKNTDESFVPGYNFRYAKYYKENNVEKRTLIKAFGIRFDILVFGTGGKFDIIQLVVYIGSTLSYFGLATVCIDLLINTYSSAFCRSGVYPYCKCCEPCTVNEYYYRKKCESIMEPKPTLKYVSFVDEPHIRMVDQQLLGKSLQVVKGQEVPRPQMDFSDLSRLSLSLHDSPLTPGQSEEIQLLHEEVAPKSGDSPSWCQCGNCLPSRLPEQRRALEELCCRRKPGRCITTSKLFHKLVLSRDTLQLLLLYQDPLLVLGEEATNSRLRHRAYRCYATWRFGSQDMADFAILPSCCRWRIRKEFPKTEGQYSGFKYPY

C[C@H](CCC(=O)NCCS(=O)(=O)O)[C@H]1CC[C@H]2[C@@H]3CC[C@@H]4C[C@H](O)CC[C@]4(C)[C@H]3C[C@H](O)[C@]12C [HY209, sodium taurodeoxycholate]
increase in the production of IL-1β (IL-1β [1]; TNF-α (20 ng/ml)+DNCB (5 μg/ml)+HY209 (400 ng/ml), 24 hours): suppressed
increase in the production of IL-1β (IL-1β [1]; TNF-α+DNCB+HY209 (400 ng/ml) 24 hours, then ATP 3 hours): suppressed
Ca++ mobilization increased under the influence of IL-1β and TNF-α (P2X7 receptor [2]): significantly decreases as the concentration of HY209 increases
increase in hASC expression (NLRP3 inflammasome [3]): suppressed
increase in hNLRP3-ASC oligomerization (NLRP3 inflammasome [3]): suppressed
increase in hNLRP3 expression (NLRP3 inflammasome [3]): suppressed
increase in the production of IL-1β (IL-1β [4]; HY209 (400 ng/ml) after treatment with LPS+BzATP (posttreatment, 3 hours after LPS)): suppressed
increase in the production of IL-1β (IL-1β [4]; HY209 (400 ng/ml) before treatment with LPS+ATP (pretreatment, 1 hour before LPS)): suppressed
increase in the production of IL-1β (IL-1β [4]; LPS (10 ng/ml)+ATP (500 μm), HY209 0, 25, 100, 400 ng/ml): suppressed in a HY209 concentration-dependent manner
increase in the production of IL-1β (IL-1β [4]; LPS (10 ng/ml)+BzATP (300 μm), HY209 0, 25, 100, 400 ng/ml): suppressed in a HY209 concentration-dependent manner
increase in hASC expression (NLRP3 inflammasome [5]): suppressed
increase in hNLRP3-ASC oligomerization (NLRP3 inflammasome [5]): suppressed
increase in hNLRP3 expression (NLRP3 inflammasome [5]): suppressed
decrease of cumulative fluorescence value increased by BzATP (P2X7): 100%
Ca++ mobilization increased under the influence of LPS (P2X7 receptor [6]): significantly decreases
Ca++ mobilization increased under the influence of Aβ (P2X7 receptor [7]): significantly decreases
inhibitory effect on five types of inflammatory cytokines produced by the inflammasome stimulation signal [8]: superior
